Holding throughout (experiment): Affinity-purification and mass spectrometry (AP-MS) chemical proteomics, all proteins;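 for Difference: 200 µM free competitor with 20 µM biotin probe overnight in lysate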
Holding throughout (assay type): binding

The target of assay [1] is T1, proteins displaced from immobilized biotin-Cmpd 1 pulldowns (U2OS cell lysate) (Homo sapiens, UniProt Q14566).
T1 construct: endogenous in cells; host or cells: U2OS
The note with it: GN=MCM6 (Q14566).

In assay [2] the target is T2, proteins displaced from immobilized biotin-Cmpd 1 pulldowns (U2OS cell lysate) (Homo sapiens, UniProt O60832).
T2 construct: endogenous in cells; host or cells: U2OS
T2 sequence (O60832 whole entry): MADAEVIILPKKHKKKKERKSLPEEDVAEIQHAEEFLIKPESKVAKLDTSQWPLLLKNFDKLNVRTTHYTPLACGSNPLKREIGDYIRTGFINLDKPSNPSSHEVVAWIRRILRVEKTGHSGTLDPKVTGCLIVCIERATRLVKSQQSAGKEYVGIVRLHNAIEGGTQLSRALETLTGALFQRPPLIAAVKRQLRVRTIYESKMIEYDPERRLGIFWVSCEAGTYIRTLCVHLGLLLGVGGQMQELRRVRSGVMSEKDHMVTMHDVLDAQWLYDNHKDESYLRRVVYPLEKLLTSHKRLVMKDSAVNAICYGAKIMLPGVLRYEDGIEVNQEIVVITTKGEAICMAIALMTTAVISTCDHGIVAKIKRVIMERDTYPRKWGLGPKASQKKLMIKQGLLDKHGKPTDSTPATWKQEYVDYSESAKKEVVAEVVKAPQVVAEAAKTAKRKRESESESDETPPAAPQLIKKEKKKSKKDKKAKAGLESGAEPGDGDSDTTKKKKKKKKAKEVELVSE
The settings on record: GN=DKC1 (O60832).

For assay [3], the target named is T3, proteins displaced from immobilized biotin-Cmpd 1 pulldowns (U2OS cell lysate) (Homo sapiens, UniProt Q08945).
T3 construct: endogenous in cells; host or cells: U2OS
The settings on record: GN=SSRP1 (Q08945).

Assay [4] deals with T4, proteins displaced from immobilized biotin-Cmpd 1 pulldowns (U2OS cell lysate) (Homo sapiens, UniProt P54098).
T4 construct: endogenous in cells; host or cells: U2OS
The settings on record: GN=POLG (P54098).

Assay [5] addresses T5, proteins displaced from immobilized biotin-Cmpd 1 pulldowns (U2OS cell lysate) (Homo sapiens, UniProt Q12873).
T5 construct: endogenous in cells; host or cells: U2OS
The settings on record: GN=CHD3 (Q12873).

Assay [6] has as its target T6, proteins displaced from immobilized biotin-Cmpd 1 pulldowns (U2OS cell lysate) (Homo sapiens, UniProt P62910).
T6 construct: endogenous in cells; host or cells: U2OS
The note with it: GN=RPL32 (P62910).

In assay [7] the target is T7, proteins displaced from immobilized biotin-Cmpd 1 pulldowns (U2OS cell lysate) (Homo sapiens, UniProt O95478).
T7 construct: endogenous in cells; host or cells: U2OS
The note with it: GN=NSA2 (O95478).

Assay [8] addresses T8, proteins displaced from immobilized biotin-Cmpd 1 pulldowns (U2OS cell lysate) (Homo sapiens, UniProt Q13867).
T8 construct: endogenous in cells; host or cells: U2OS
The note with it: GN=BLMH (Q13867).

Assay [9] has as its target T9, proteins displaced from immobilized biotin-Cmpd 1 pulldowns (U2OS cell lysate) (Homo sapiens, UniProt P49368).
T9 construct: endogenous in cells; host or cells: U2OS
The note with it: GN=CCT3 (P49368).

Assay [10] addresses T10, proteins displaced from immobilized biotin-Cmpd 1 pulldowns (U2OS cell lysate) (Homo sapiens, UniProt O75369).
T10 construct: endogenous in cells; host or cells: U2OS
The note with it: GN=FLNB (O75369).

Several values for one entry are separate records, joined by “and”; a condition that tells them apart may be missing. Equal values may be shown once.

T8 sequence (Q13867 whole entry): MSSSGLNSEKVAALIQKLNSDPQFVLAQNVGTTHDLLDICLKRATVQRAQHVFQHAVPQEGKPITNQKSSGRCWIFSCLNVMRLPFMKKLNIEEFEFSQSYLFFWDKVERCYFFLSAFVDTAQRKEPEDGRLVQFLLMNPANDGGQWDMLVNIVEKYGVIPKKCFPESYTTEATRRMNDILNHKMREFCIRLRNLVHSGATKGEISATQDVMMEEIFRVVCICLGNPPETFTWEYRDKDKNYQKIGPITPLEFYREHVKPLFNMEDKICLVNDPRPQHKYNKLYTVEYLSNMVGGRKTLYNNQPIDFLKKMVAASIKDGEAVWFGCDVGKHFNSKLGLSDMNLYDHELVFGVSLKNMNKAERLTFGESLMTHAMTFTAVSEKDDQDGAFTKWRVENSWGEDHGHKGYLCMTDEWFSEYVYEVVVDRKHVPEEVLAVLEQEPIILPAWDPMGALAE
T10 sequence (O75369 whole entry): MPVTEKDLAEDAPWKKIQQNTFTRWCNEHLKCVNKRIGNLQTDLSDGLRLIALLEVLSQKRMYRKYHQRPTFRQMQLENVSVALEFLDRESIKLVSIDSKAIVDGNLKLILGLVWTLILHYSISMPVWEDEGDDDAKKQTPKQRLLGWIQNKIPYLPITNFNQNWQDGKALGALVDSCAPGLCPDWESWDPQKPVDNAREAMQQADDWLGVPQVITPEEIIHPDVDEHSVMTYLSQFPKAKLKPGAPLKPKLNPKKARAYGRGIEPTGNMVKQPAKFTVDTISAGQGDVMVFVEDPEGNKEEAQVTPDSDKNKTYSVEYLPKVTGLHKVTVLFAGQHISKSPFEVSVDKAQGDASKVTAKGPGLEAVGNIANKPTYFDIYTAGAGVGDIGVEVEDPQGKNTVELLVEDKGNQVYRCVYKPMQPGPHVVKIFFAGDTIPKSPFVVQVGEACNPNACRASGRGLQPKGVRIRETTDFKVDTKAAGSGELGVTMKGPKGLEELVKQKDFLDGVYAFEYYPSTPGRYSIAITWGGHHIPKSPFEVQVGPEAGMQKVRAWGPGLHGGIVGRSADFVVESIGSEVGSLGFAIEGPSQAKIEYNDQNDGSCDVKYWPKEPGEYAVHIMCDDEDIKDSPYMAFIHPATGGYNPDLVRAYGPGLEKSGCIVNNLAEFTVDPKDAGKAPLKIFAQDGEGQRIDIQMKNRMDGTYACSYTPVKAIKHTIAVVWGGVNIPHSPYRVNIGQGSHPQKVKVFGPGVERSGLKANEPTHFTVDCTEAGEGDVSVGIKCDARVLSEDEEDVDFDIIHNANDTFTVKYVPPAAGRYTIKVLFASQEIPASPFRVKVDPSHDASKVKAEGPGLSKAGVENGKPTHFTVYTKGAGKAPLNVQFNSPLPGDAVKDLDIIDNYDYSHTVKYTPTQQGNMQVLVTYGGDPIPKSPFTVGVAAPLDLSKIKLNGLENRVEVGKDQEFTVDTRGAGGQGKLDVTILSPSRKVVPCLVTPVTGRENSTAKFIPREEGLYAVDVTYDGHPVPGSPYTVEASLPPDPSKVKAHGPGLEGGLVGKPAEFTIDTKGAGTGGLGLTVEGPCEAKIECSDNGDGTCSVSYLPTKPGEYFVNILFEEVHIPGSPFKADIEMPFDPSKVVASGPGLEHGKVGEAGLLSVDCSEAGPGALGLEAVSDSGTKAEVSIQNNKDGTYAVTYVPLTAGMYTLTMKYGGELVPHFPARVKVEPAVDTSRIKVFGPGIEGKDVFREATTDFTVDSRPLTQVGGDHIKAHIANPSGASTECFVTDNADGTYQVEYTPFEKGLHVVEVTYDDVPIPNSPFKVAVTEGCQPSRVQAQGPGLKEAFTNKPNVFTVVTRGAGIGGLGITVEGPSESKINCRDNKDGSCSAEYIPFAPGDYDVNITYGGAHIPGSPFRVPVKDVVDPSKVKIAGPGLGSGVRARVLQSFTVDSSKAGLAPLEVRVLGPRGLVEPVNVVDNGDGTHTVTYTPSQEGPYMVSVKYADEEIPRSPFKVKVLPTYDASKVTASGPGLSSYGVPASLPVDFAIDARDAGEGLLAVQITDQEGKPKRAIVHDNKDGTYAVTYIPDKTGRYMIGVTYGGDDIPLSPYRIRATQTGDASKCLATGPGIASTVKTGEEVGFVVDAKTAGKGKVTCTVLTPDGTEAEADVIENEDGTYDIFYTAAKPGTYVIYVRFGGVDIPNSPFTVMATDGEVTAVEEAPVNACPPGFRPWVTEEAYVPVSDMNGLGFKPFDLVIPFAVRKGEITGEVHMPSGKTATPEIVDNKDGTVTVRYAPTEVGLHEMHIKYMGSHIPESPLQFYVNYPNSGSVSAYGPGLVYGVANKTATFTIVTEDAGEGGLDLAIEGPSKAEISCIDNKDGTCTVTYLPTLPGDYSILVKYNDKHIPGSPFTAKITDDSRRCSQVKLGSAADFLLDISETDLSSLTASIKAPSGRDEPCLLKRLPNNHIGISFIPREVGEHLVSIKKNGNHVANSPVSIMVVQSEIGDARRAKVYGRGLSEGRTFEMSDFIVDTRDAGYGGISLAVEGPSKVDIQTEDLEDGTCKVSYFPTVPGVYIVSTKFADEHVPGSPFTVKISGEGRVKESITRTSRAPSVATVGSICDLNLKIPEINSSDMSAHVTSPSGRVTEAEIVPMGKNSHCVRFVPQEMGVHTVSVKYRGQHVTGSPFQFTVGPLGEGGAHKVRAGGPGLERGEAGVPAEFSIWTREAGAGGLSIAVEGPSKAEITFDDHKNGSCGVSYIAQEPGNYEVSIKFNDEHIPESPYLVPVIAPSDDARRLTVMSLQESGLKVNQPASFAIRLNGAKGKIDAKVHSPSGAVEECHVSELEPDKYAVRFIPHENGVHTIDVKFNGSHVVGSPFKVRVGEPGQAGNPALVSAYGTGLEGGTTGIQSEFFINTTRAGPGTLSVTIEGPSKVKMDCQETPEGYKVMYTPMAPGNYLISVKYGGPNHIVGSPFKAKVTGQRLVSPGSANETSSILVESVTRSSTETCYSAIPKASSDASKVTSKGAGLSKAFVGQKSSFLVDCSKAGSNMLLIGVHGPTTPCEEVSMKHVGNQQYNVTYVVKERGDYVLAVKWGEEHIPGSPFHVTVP
T1 sequence (Q14566 whole entry): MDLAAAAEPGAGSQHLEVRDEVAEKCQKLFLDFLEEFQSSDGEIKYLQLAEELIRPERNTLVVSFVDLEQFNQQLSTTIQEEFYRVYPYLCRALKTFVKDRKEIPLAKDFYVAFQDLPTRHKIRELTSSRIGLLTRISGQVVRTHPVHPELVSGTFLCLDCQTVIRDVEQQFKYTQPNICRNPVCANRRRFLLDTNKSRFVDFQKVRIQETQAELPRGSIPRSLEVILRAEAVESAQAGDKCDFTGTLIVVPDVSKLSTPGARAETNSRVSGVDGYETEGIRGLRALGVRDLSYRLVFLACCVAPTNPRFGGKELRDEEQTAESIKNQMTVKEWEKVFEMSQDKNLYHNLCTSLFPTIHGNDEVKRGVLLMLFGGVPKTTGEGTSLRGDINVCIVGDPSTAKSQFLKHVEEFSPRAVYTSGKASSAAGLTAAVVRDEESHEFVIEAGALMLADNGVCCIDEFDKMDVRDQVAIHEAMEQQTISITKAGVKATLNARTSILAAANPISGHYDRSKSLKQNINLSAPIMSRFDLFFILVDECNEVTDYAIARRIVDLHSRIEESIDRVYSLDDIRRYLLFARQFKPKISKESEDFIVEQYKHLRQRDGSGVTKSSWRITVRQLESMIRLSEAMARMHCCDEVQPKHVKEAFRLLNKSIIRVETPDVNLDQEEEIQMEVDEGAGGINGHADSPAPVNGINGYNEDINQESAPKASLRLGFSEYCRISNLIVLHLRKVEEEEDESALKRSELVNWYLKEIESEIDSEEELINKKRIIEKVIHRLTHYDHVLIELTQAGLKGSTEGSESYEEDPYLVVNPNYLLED
T9 sequence (P49368 whole entry): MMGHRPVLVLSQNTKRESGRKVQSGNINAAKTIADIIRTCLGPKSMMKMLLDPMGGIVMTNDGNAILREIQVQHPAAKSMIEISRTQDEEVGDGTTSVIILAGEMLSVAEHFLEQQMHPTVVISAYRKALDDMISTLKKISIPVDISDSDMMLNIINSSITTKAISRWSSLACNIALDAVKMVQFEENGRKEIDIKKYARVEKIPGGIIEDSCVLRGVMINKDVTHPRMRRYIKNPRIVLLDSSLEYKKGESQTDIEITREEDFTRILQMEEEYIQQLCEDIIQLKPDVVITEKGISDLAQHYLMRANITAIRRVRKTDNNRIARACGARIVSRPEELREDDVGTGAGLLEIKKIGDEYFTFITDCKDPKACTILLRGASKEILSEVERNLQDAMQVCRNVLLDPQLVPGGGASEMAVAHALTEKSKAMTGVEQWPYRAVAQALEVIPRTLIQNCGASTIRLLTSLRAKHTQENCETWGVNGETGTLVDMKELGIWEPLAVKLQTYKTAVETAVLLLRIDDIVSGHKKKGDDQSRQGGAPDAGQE

For `Cn1c2c(c(=N)c3c1CCC3)CCC2` [Compound 1, 4-methyl-2,3,4,5,6,7-hexahydrodicyclopenta[b,e]pyridin-8(1H)-imine], the Difference is 1.097 in assay [1] (Cmpd minus DMSO, -LOG(P-value) 0.814851); 0.5453 in assay [2] (Cmpd minus DMSO, -LOG(P-value) 0.760368); 0.3628 in assay [3] (Cmpd minus DMSO, -LOG(P-value) 0.732843); 0.489 in assay [4] (Cmpd minus DMSO, -LOG(P-value) 0.92162); -1.815 in assay [5] (Cmpd minus DMSO, -LOG(P-value) 0.756951); 3.21 in assay [6] (Cmpd minus DMSO, -LOG(P-value) 0.742167). Besides, the Difference in [7] (Cmpd minus DMSO, -LOG(P-value) 0.709566) is 1.456; in assay [8] (Cmpd minus DMSO, -LOG(P-value) 0.904295) it was -3.65; in assay [9] (Cmpd minus DMSO, -LOG(P-value) 0.937615) it was 0.5386; in assay [10] (Cmpd minus DMSO, -LOG(P-value) 0.706969), 1.057. In addition, the “iBAQ Cmpd” value in assay [1] (replicates 1-3) is 19.4847 and 18.183 and 18.682; in assay [2] (replicates 1-3), 19.0033 and 19.8581 and 19.0089; in assay [3] (replicates 1-3), 19.198 and 18.7704 and 18.706; in assay [4] (replicates 1-3) it was 17.0695 and 17.0761 and 17.6776; in assay [5] (replicates 1-3) it was 14.8034 and 14.2721 and 13.9438; in assay [6] (replicates 1-3) it was 19.3082 and 19.1191 and 19.5272. For the same compound, the “iBAQ Cmpd” value was 18.8418 and 18.1506 and 17.9444 in [7] (replicates 1-3); 19.0378 and 19.0387 and 13.7316 in [8] (replicates 1-3); 20.7218 and 21.2363 and 20.6211 in [9] (replicates 1-3); 17.1694 and 17.27 and 16.0757 in assay [10] (replicates 1-3).

Source of the values: article PMC9481570, “A small molecule antagonist of SMN disrupts the interaction between SMN and RNAP II” (Nature Communications, 2022).
